Values of other authors in publication PMC6721965 (Biochimica et biophysica acta. Biomembranes, 2019).

Test system: bacteria
Conditions: classification of parent peptides used for hybrid design; ref [4]-[8]

Sequence | Primary cellular localization pattern
ARDNKKTRIWPRHLQLAVRN [DesHDAP1] | membrane translocation
GIGKWLHSAKKFGKAFVGEIMNS [magainin 2] | membrane localization/permeabilization
KGRGKQGGKVRWKAKTRSS [parasin] | membrane localization/permeabilization
TRSSRAGLQWPVGRVHRLLRK [buforin II (BF2), buforin II] | membrane translocation
